According to patent US6140051A, “Fluorescent dibenzazole derivatives and methods related thereto” (priority 1998, dated 2000):
Structures can show the parent of a compound that is named as a salt. Where two headings read alike, the source gives them in different places. Each block holds one molecule with its values, some of them ahead of it. {BBTE} = label added with the BBTE phosphoramidite

Tests used:
[1] = background, known fluorophores; cited from earlier work
[2] = Fluorescence properties measured at pH about 10 in AttoPhos buffer; type: physicochemical
Protocol: * The fluorescence is measured at pH about 10 in AttoPhos buffer (JBL
Scientific, San Luis Obispo, CA).
In the following examples, NMR data were measured by a Bruker AC-300 300 MHz instrument; mass spectra were obtained on a VG Platform, Fisons Instruments; fluorescence data were obtained from a Perkin Elmer Luminescence Spectrometer, Model LS50B.

[3] = aqueous; cited from earlier work
β-galactosidase = target: T1, β-galactosidase (Escherichia coli, UniProt P00722); assay: Enzymatic activity test, β-galactosidase; type: biochemical, E. Coli; settings: 1 mg in 10 ml 0.1 M potassium phosphate buffer pH 7, 10 mM DTT, 1 mM MgCl2
T1 construct: purchased ICN Biomedicals, Inc. 104939; host or cells: E. Coli
Protocol: (2) β-Galactosidase: 1 mg BEBTESG was dissolved in 10 ml 0.1 M potassium phosphate buffer (pH 7) containing 10 mM DTT and 1 mM MgCl2 and a small quantity of β-galactosidase (Cat. No. 104939, E. Coli, ICN Biomedicals, Inc.) was added.

[4] = pH dependence of fluorescence; type: physicochemical
Text: To make the phenolic fluorophore fully fluorescent at a lower pH (7-8) to achieve the best performance for some enzymatic and biological assays, some fluorophores are synthesized with electronegative substituent(s), e.g., chloride, bromide, iodide, fluoride, trifluoromethyl, --SO3 H, etc. These substituted derivatives may be analyzed at different pH's for their fluorescent efficiency. The dependence of fluorescent intensity on pH for some preferred compounds of the invention, and comparative compounds, are shown in FIG. 3. Compared to the unsubstituted compound, BBT (also shown in the graph, U.S. Pat. No. 5,424,440), the electronegatively substituted BBT derivatives, especially CIBBT, can reach their maximum fluorescence at a pH very close to physiological conditions (pH 7-8). The pH dependent characteristic change of fluorescent intensity of these fluorophores can also find applications as pH titration fluorescent indicators.

[5] = Fluorescence of labeled oligonucleotide on DNA electrophoresis gel; settings: versus non-labeled oligonucleotide
Text: (4) Fluorescence: The labeled BBTE-[…] (SEQ ID NO: 1) was separated on a standard DNA electrophoresis gel, along with the non-labeled […] (SEQ ID NO: 1).

[6] = tested on: Lipase from Pseudomonas species; assay: Lipase activity towards BBT acyl derivatives; type: biochemical; settings: 100 mM Tris HCl pH 8.0; Ex 440 nm, Em 550 nm; FIG. 5; text says 'lipases'
Protocol: (3) Esterase and Lipase: Buffer: 100 mM Tris. HCl, pH 8.0. Substrate Stock Solution: 2 mM acyl BBT dioxane solution. Enzymes: All enzymes were from Sigma: Esterase from Porcine Liver(E3 128); Lipase from Pseudomonas species ([…]); Lipase from Candida cylindracea ([…]). Dilute the enzyme by the buffer to the desired concentration before use. Instrument: Squoia-Tumer Fluorometer, Model 450. Excitation at 440 nm and Emission at 550 nm. Procedure: 1. Set the Fluorometer Gain to 200. 2. Set the Fluorometer Zero to 0 with the Tris buffer. 3. Set the Fluorometer Span to 1000 using JBL 10 ng BBT (FEY) standard solution. 4. Pipette 980 μl buffer to a glass test tube (Baxter, Cat. No. T1290-3). 5. Add 10 μl substrate stock solution and mix well. 6. Measure and record the blank reading. 7. Add 10 μl enzyme solution. 8. Take fluorescence reading every one minute for 3 minutes and record. 9. Calculate the fluorescence unit change (FU/min) by subtracting the first-minute reading from the second-minute reading. 10. Plot FU/min vs. enzyme concentration, u/L (FIG. 4 and FIG. 5).

[7] = tested on: Esterase from Porcine Liver; assay: Esterase activity towards BBT acyl derivatives; type: biochemical; settings: 100 mM Tris HCl pH 8.0; Ex 440 nm, Em 550 nm; FIG. 4
Protocol: Buffer: 100 mM Tris. HCl, pH 8.0.
Substrate Stock Solution: 2 mM acyl BBT dioxane solution.
Enzymes: All enzymes were from Sigma: Esterase from Porcine Liver(E3 128); Lipase from Pseudomonas species (L9518); Lipase from Candida cylindracea (L1754). Dilute the enzyme by the buffer to the desired concentration before use.
Instrument: Squoia-Tumer Fluorometer, Model 450. Excitation at 440 nm and Emission at 550 nm.
1. Set the Fluorometer Gain to 200.
2. Set the Fluorometer Zero to 0 with the Tris buffer.
3. Set the Fluorometer Span to 1000 using JBL 10 ng BBT (FEY) standard solution.
4. Pipette 980 μl buffer to a glass test tube (Baxter, Cat. No. T1290-3).
5. Add 10 μl substrate stock solution and mix well.
6. Measure and record the blank reading.
7. Add 10 μl enzyme solution.
8. Take fluorescence reading every one minute for 3 minutes and record.
9. Calculate the fluorescence unit change (FU/min) by subtracting the first-minute reading from the second-minute reading.
10. Plot FU/min vs. enzyme concentration, u/L (FIG. 4 and FIG. 5).

[8] = phenolic hydroxyl; cited from earlier work
[9] = cited from earlier work
[10] = target: T2, alkaline phosphatase (Calf Intestine) (Bos taurus, UniProt P19111); assay: Enzymatic activity test, alkaline phosphatase; type: biochemical; settings: 1 mg in 10 ml AttoPhos buffer
T2 construct: purchased Calzyme, San Luis Obispo, Calif; host or cells: calf intestine
Protocol: (1) Alkaline Phosphatase: 1 mg BEBTP was dissolved in 10 ml AttoPhos buffer (JBL Scientific, San Luis Obispo, Calif.). A small quantity of alkaline phosphatase (Calf Intestine, Calzyme, San Luis Obispo, Calif.) was added.

T1 sequence (P00722 2-1024): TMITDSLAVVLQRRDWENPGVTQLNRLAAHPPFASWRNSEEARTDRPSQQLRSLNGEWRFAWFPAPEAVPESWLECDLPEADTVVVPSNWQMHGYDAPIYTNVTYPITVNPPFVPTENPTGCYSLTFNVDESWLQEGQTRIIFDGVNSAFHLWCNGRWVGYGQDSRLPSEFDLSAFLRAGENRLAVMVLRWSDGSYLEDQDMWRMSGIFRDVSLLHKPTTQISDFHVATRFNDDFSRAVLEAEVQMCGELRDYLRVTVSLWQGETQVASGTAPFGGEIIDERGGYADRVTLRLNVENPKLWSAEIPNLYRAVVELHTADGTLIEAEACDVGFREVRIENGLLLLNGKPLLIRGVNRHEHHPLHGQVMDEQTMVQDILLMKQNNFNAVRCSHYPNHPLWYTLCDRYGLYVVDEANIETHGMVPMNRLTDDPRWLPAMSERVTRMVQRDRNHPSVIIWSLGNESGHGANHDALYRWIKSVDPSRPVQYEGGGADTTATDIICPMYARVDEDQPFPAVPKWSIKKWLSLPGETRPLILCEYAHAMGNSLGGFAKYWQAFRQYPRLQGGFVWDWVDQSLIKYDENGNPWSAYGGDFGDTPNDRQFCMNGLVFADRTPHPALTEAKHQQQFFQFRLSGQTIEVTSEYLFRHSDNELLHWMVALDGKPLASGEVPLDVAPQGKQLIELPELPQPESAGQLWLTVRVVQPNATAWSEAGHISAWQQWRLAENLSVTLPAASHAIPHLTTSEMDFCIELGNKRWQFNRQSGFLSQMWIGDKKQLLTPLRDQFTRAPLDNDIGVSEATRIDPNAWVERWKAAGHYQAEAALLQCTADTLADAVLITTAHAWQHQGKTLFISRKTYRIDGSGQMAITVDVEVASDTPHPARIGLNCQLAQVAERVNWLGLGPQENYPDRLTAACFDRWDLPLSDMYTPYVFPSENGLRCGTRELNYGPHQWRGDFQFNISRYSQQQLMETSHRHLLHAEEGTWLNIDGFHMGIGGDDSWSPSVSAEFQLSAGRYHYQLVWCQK
T2 sequence (P19111 20-506 limits assumed): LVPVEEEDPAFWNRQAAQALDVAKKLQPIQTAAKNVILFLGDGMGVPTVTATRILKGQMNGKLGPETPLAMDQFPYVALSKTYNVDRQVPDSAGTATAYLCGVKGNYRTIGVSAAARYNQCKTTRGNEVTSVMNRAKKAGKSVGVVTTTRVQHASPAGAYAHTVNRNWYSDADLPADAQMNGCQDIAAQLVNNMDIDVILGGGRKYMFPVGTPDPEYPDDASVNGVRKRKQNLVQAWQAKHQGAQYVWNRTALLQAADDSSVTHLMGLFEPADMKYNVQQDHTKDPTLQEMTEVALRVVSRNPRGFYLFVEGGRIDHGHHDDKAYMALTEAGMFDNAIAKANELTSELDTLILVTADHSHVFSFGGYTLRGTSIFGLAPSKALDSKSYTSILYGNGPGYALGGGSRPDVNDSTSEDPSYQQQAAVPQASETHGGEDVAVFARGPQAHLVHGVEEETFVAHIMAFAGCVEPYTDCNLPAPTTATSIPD

EM ([2]; Table 1): 545 nm | EX ([2]; Table 1): 437 nm | Stokes Shift ([2]; Table 1): 108 nm
Molecule: O=C(O)Cc1ccc2nc(-c3nc4ccc(O)c(Cl)c4s3)sc2c1 [CIBBTAA, 2'-(7-Chloro-6-hydroxybenzothiazol-2-yl)-benzothiazole-6'-acetic acid]

EM ([2]; Table 1): 549 nm | EX ([2]; Table 1): 430 nm | Stokes Shift ([2]; Table 1): 119 nm
Molecule: O=C(O)Cc1ccc2nc(-c3nc4ccc(O)cc4s3)sc2c1 [BBTAA, 2'-(6-Hydroxybenzothiazol-2-yl)-benzothiazole-6'-acetic acid]

EM ([2]; Table 2): 620 nm | EX ([2]; Table 2): 440 nm | Stokes Shift ([2]; Table 2): 180 nm
Molecule: Oc1ccc2nc(/C=C/c3nc4ccccc4s3)sc2c1 [BEBT, 2'-(2-benzothiazolylethenyl)-6'-hydroxybenzothiazole]

EM ([2]; Table 2): 624 nm | EX ([2]; Table 2): 443 nm | Stokes Shift ([2]; Table 2): 181 nm
Molecule: Oc1ccc2nc(/C=C/c3nc4c(ccc5ccccc54)s3)sc2c1 [α-BENT]

pH at which maximum fluorescence is reached ([4]; FIG. 3): 7-8 pH | EM ([2]; Table 1): 550 nm | EX ([2]; Table 1): 435 nm | Stokes Shift ([2]; Table 1): 115 nm
Molecule: Oc1ccc2nc(-c3nc4ccccc4s3)sc2c1Cl [CIBBT, 2'-(Benzothiazol-2-yl)-7'-chloro-6'-hydroxybenzothiazole]

EM ([2]; Table 1): 552 nm | EX ([2]; Table 1): 423 nm | Stokes Shift ([2]; Table 1): 129 nm
Molecule: Oc1ccc2nc(-c3nc4ccccc4s3)sc2c1F [FBBT, 2'-(2-Benzothiazolyl)-7'-fluoro-6'-hydroxybenzothiazole]

EM ([2]; Table 1): 550 nm | EX ([2]; Table 1): 422 nm | Stokes Shift ([2]; Table 1): 128 nm
Molecule: OCCc1ccc2nc(-c3nc4ccc(O)cc4s3)sc2c1 [BBTE]

EM ([2]; Table 2): 604 nm | EX ([2]; Table 2): 438 nm | Stokes Shift ([2]; Table 2): 166 nm
Molecule: Oc1ccc2nc(/C=C/c3nc4ccccc4o3)sc2c1 [BEBO, 2'-(2-benzoxazolylethenyl)-6'-hydroxybenzothiazole]

EM ([2]; Table 1): 548 nm | EX ([2]; Table 1): 430 nm | Stokes Shift ([2]; Table 1): 118 nm
Molecule: O=C(Cc1ccc2nc(-c3nc4ccc(O)cc4s3)sc2c1)NCCS(=O)(=O)O [BBTAAT]

substrate activity for lipases [6]: very poor substrate | substrate activity for porcine liver esterase [7]: very effective substrate
Molecule: CCC(=O)Oc1ccc2nc(-c3nc4ccccc4s3)sc2c1 [Propionyl BBT, 2'-(2-Benzothiazolyl)-6'-hydroxybenzothiazole Propionate]

pH at which the compound fully fluoresces [4]: 9-10 pH
Molecule: Oc1ccc2nc(-c3nc4ccccc4s3)sc2c1 [BBT, 2'-(2-Benzothiazolyl)-6'-hydroxy-benzothiazole]
pKa [8]: 8.5 | ionization state (fluorescence) ([9]; pH 10.3 (ALP assay)): fully ionized | ionization state (fluorescence) ([9]; pH range of 6.0 to 8.0): only partially ionized | Stokes Shift [1]: 142 nm | λEM (wavelength of maximum emission) [1]: 561 nm | λEX (wavelength of maximum excitation) [1]: 419 nm

EM ([2]; Table 1): 538 nm | EX ([2]; Table 1): 420 nm | Stokes Shift ([2]; Table 1): 118 nm
Molecule: O=S(=O)(O)c1c(O)ccc2nc(-c3nc4ccccc4s3)sc12 [SBBT]

EM ([2]; Table 2): 602 nm | EX ([2]; Table 2): 443 nm | Stokes Shift ([2]; Table 2): 159 nm
Molecule: Oc1ccc2nc(/C=C/c3nc4ccc5ccccc5c4o3)sc2c1 [β-BENO]

Further lines, the molecule ahead of its results:

Molecule: CCN(CC)c1ccc2c(-c3ccccc3C(=O)O)c3ccc(=[N+](CC)CC)cc-3oc2c1 [Rhodamine]
Stokes Shift [1]: 35 nm | λEM (wavelength of maximum emission) [1]: 575 nm | λEX (wavelength of maximum excitation) [1]: 540 nm

Molecule: Oc1ccc2nc(-c3ccccc3)oc2c1 [2-Phenyl-6-hydroxybenzoxazole]
Stokes Shift [1]: 110 nm | λEM (wavelength of maximum emission) [1]: 460 nm | λEX (wavelength of maximum excitation) [1]: 370 nm

Molecule: OC[C@H]1O[C@@H](Oc2ccc3nc(-c4nc5ccccc5s4)sc3c2)[C@H](O)[C@@H](O)[C@H]1O [galactoside of BBT]
solubility [3]: less than 1 mM

Molecule: O=C1OC2(c3ccc(O)cc3Oc3cc(O)ccc32)c2ccccc21 [Fluorescein]
Stokes Shift [1]: 28 nm | λEM (wavelength of maximum emission) [1]: 520 nm | λEX (wavelength of maximum excitation) [1]: 492 nm

Molecule: O=S(=O)(O)CCc1ccc2nc(/C=C/c3nc4ccc(O[C@@H]5O[C@H](CO)[C@H](O)[C@H](O)[C@H]5O)cc4s3)sc2c1 [BEBTESG, 2'-((6-Sulfoethyl-2-benzothiazolyl)ethenyl)-6'-hydroxybenzothiazole β-D-Galactoside]
fluorescence on hydrolysis by β-galactosidase (β-galactosidase): orange red fluorescence was quickly developed

Molecule: Oc1ccc2nc(/C=C/c3nc4c(ccc5ccccc54)o3)sc2c1 [α-BENO]
EM ([2]; Table 2): 585 nm | EX ([2]; Table 2): 432 nm | Stokes Shift ([2]; Table 2): 153 nm

Molecule: CCN1C(=CC=Cc2oc3ccccc3[n+]2CCCCCC(=O)[O-])Oc2ccccc21 [Cy2]
Stokes Shift [1]: 18 nm | λEM (wavelength of maximum emission) [1]: 506 nm | λEX (wavelength of maximum excitation) [1]: 489 nm

Molecule: BBTE-TCTCCCAGCGTGCGCCAT: oligonucleotide (SEQ ID NO: 1) labeled at the 5'-end with the BBTE phosphoramidite (5' {BBTE}, sugars by position and backbone not given here)
fluorescence on DNA electrophoresis gel [5]: strong yellow fluorescent band

Molecule: O=P(O)(O)Oc1ccc2nc(/C=C/c3nc4ccccc4s3)sc2c1 [BEBTP, 2'-(2-Benzothiazolylethenyl)-6'-hydroxybenzothiazole phosphate di(2-amino-2-methyl 1,3-propanediol) salt]
fluorescence on hydrolysis by alkaline phosphatase [10]: orange red fluorescence was quickly developed

Molecule: CCCCCCCC/C=C\CCCCCCCC(=O)Oc1ccc2nc(-c3nc4ccccc4s3)sc2c1 [oleoyl BBT, 2'-(2-Benzothiazolyl)-6'-hydroxybenzothiazole Oleate]
substrate activity for lipases [6]: high activity | substrate activity for porcine liver esterase [7]: low activity

Molecule: Cc1cc(=O)oc2cc(O)ccc12 [4-Methylumbelliferone]
Stokes Shift [1]: 82 nm | λEM (wavelength of maximum emission) [1]: 449 nm | λEX (wavelength of maximum excitation) [1]: 367 nm
